Measurements: ChEMBL document CHEMBL5149970 (J Med Chem, 2021)
Calls of active or inactive are those of the source. The calls are words filed in the database; no cut-off is given here.

Tests used:
[1] = tested on: CFU-GM; assay: Inhibition of colony formation in human CFU-GM cells assessed as reduction in colony number and size at 1 uM incubated for 14 days by crystal violet staining based analysis; type: toxicity, cell-based; conditions: 336 h, time 14 day
[2] = Inhibition of colony formation in human BFU-E cells assessed as reduction in colony number and size at 1 uM incubated for 14 days by crystal violet staining based analysis; type: toxicity, cell-based; conditions: 336 h, time 14 day
[3] = tested on: EU-1; assay: Inhibition of MDM2/XIAP IRES mRNA interaction in human EU-1 cells assessed as increase in PARP cleavage at 5 uM measured for 24 hrs by western blot analysis; type: cell-based
[4] = tested on: EU-1; assay: Inhibition of MDM2/XIAP IRES mRNA interaction in human EU-1 cells assessed as increase in caspase-3 cleavage at 5 uM measured for 24 hrs by western blot analysis; type: cell-based
[5] = tested on: EU-1; assay: Inhibition of MDM2/XIAP IRES mRNA interaction in human EU-1 cells assessed as increase in caspase-9 cleavage at 5 uM measured for 24 hrs by western blot analysis; type: cell-based
[6] = Antiproliferative activity against human EU-1 cells assessed as inhibition of cell growth incubated for 48 hrs by WST assay; type: functional, cell-based; conditions: EU-1, 48 h
[7] = Antiproliferative activity against human SH-EP1 cells assessed as reduction in cell survival incubated for 48 hrs by WST assay; type: functional, cell-based; conditions: SH-EP1, 48 h
[8] = tested on: EU-1; assay: Inhibition of MDM2/XIAP IRES mRNA interaction in human EU-1 cells assessed as induction of MDM2 degradation by measuring downregulation of MDM2 protein expression at 1 uM measured after 8 hrs by western blot analysis; type: cell-based
[9] = tested on: EU-1; assay: Inhibition of MDM2/XIAP IRES mRNA interaction in human EU-1 cells assessed as fold change in p53 protein expression at 1 uM measured after 90 mins by CHX chase assay (reference value: 0.13); type: cell-based
[10] = tested on: EU-1; assay: Inhibition of MDM2/XIAP IRES mRNA interaction in human EU-1 cells assessed as increase in p53 protein expression measured after 24 hrs by western blot analysis; type: cell-based; conditions: dose 0.25-2 µM, DDE = dose-dependent effect
[11] = tested on: EU-1; assay: Inhibition of MDM2/XIAP IRES mRNA interaction in human EU-1 cells assessed as increase in PUMA protein expression at 1 uM measured after 8 hrs by western blot analysis; type: cell-based
[12] = tested on: EU-1; assay: (§1) Inhibition of MDM2/XIAP IRES mRNA interaction in human EU-1 cells assessed as inhibition of XIAP mRNA translation by measuring reduction in state of polyribosome association of XIAP mRNA in cytoplasmic lysate at 1 uM measured after 4 hrs by linear sucrose gradient fractionation based qRT-PCR analysis; type: subcellular; conditions: Cytoplasm
[13] = tested on: EU-1; assay: Inhibition of MDM2/XIAP IRES mRNA interaction in human EU-1 cells assessed as increase in caspase-3 cleavage at 1 uM measured after 8 hrs by western blot analysis; type: cell-based
[14] = tested on: EU-1; assay: as §1, with “increase” for “reduction in state of polyribosome association of XIAP mRNA”, “fraction containing translation-inactive complexes, mono ribosomes” for “lysate”; type: subcellular; conditions: Cytoplasm
[15] = tested on: EU-1; assay: Inhibition of MDM2/XIAP IRES mRNA interaction in human EU-1 cells assessed as induction of MDM2 self-ubiquitination at 1 uM measured for 90 mins by immunoprecipitation-western blot analysis; type: cell-based
[16] = Clearance in Sprague-Dawley rat at 10 mg/kg, iv measured for 24 hrs by LC-MS/MS analysis; type: ADME, organism-based; conditions: in vivo
[17] = Volume of distribution in Sprague-Dawley rat at 10 mg/kg, iv measured for 24 hrs by LC-MS/MS analysis; type: ADME, organism-based; conditions: in vivo
[18] = tested on: EU-1; assay: Inhibition of MDM2/XIAP IRES mRNA interaction in human EU-1 cells assessed as induction of MDM2 degradation by measuring fold change in MDM2 protein expression at 1 uM measured after 90 mins by CHX chase assay (reference value: 0.76); type: cell-based
[19] = tested on: EU-1; assay: Inhibition of MDM2/XIAP IRES mRNA interaction in human EU-1 cells assessed as increase in p53 protein expression at 1 uM measured after 2 to 24 hrs by western blot analysis; type: cell-based; conditions: time 2-24 hrs
[20] = tested on: EU-1; assay: Inhibition of MDM2/XIAP IRES mRNA interaction in human EU-1 cells assessed as fold change in p53 protein expression at 1 uM measured after 120 mins by CHX chase assay (reference value: 0.08); type: cell-based
[21] = tested on: EU-1; assay: Inhibition of MDM2/XIAP IRES mRNA interaction in human EU-1 cells assessed as induction of MDM2 degradation by measuring fold change in MDM2 protein expression at 1 uM measured after 30 mins by CHX chase assay (reference value: 0.92); type: cell-based
[22] = tested on: SH-EP1; assay: Inhibition of colony formation in human SH-EP1 cells assessed as reduction in colony number and size at 0.25 to 4 uM incubated for 2 weeks by crystal violet staining based analysis; type: functional, cell-based; conditions: dose 0.25-4 µM
[23] = tested on: EU-1; assay: Inhibition of MDM2/XIAP IRES mRNA interaction in human EU-1 cells assessed as induction of MDM2 degradation by measuring downregulation of MDM2 protein expression at 1 uM measured after 2 to 24 hrs by western blot analysis; type: cell-based; conditions: time 2-24 hrs
[24] = tested on: EU-1; assay: Inhibition of MDM2/XIAP IRES mRNA interaction in human EU-1 cells assessed as increase in caspase-9 cleavage at 1 uM measured after 8 hrs by western blot analysis; type: cell-based
[25] = AUC in Sprague-Dawley rat at 25 mg/kg, po measured for 24 hrs by LC-MS/MS analysis; type: ADME, organism-based; design: time 24 hrs, dose 25 mg/kg, route po; conditions: in vivo
[26] = Elimination half life in Sprague-Dawley rat at 10 mg/kg, iv measured for 24 hrs by LC-MS/MS analysis; type: ADME, organism-based; conditions: in vivo
[27] = tested on: EU-1; assay: Inhibition of MDM2/XIAP IRES mRNA interaction in human EU-1 cells assessed as induction of MDM2 degradation by measuring fold change in MDM2 protein expression at 1 uM measured after 120 mins by CHX chase assay (reference value: 0.69); type: cell-based
[28] = tested on: EU-1; assay: Inhibition of MDM2/XIAP IRES mRNA interaction in human EU-1 cells assessed as fold change in p53 protein expression at 1 uM measured after 60 mins by CHX chase assay (reference value: 0.19); type: cell-based
[29] = tested on: LA1-55n; assay: Inhibition of colony formation in human LA1-55n cells assessed as reduction in colony number and size at 0.25 to 4 uM incubated for 2 weeks by crystal violet staining based analysis; type: functional, cell-based; conditions: dose 0.25-4 µM
[30] = Oral bioavailability in Sprague-Dawley rat at 25 mg/kg measured for 24 hrs by LC-MS/MS analysis; type: ADME, organism-based; conditions: in vivo
[31] = Antiproliferative activity against human LA1-55n cells assessed as reduction in cell survival incubated for 48 hrs by WST assay; type: functional, cell-based
[32] = tested on: EU-1; assay: Inhibition of MDM2/XIAP IRES mRNA interaction in human EU-1 cells assessed as induction of MDM2 degradation by measuring downregulation of MDM2 protein expression incubated for 24 hrs by western blot analysis; type: cell-based; conditions: dose 0.25-2 µM, DDE = dose-dependent effect
[33] = tested on: EU-1; assay: Inhibition of MDM2/XIAP IRES mRNA interaction in human EU-1 cells assessed as increase in PARP cleavage at 1 uM measured after 8 hrs by western blot analysis; type: cell-based
[34] = tested on: EU-1; assay: Inhibition of MDM2/XIAP IRES mRNA interaction in human EU-1 cells assessed as increase in p21 protein expression at 1 uM measured after 8 hrs by western blot analysis; type: cell-based
[35] = tested on: EU-1; assay: Inhibition of MDM2/XIAP IRES mRNA interaction in human EU-1 cells assessed as downregulation of XIAP protein expression at 1 uM measured after 2 to 24 hrs by western blot analysis; type: cell-based; conditions: time 2-24 hrs
[36] = tested on: EU-1; assay: Inhibition of MDM2/XIAP IRES mRNA interaction in human EU-1 cells assessed as increase in p53 protein expression at 1 uM measured after 8 hrs by western blot analysis; type: cell-based
[37] = AUC in Sprague-Dawley rat at 10 mg/kg, iv measured for 24 hrs by LC-MS/MS analysis; type: ADME, organism-based; design: dose 10 mg/kg, time 24 hrs, route iv; conditions: in vivo
[38] = tested on: EU-1; conditions: Homo sapiens, dose 1.0 µM, time 4.0 hrs
[39] = tested on: EU-1; assay: Inhibition of MDM2/XIAP IRES mRNA interaction in human EU-1 cells assessed as fold change in p53 protein expression at 1 uM measured after 30 mins by CHX chase assay (reference value: 0.38); type: cell-based
[40] = tested on: EU-1; assay: Inhibition of MDM2/XIAP IRES mRNA interaction in human EU-1 cells assessed as induction of MDM2 degradation by measuring fold change in MDM2 protein expression at 1 uM measured after 60 mins by CHX chase assay (reference value: 0.85); type: cell-based
[41] = Antiproliferative activity against human NB-1643 cells assessed as reduction in cell survival incubated for 48 hrs by WST assay; type: functional, cell-based; conditions: NB-1643, 48 h
[42] = tested on: EU-1; assay: Inhibition of MDM2/XIAP IRES mRNA interaction in human EU-1 cells assessed as downregulation of XIAP protein expression incubated for 24 hrs by western blot analysis; type: cell-based; conditions: dose 0.25-2 µM, DDE = dose-dependent effect
[43] = Cmax in Sprague-Dawley rat at 10 mg/kg, iv measured for 24 hrs by LC-MS/MS analysis; type: ADME, organism-based; design: dose 10 mg/kg, time 24 hrs, route iv; conditions: in vivo
[44] = tested on: EU-1; conditions: Homo sapiens, dose 1.0 µM, time 4.0 hrs; remark: listed apart in the source
[45] = tested on: NB-1643; assay: Inhibition of colony formation in human NB-1643 cells assessed as reduction in colony number and size at 0.25 to 4 uM incubated for 2 weeks by crystal violet staining based analysis; type: functional, cell-based; conditions: dose 0.25-4 µM
[46] = Antiproliferative activity against human EU-3 cells assessed as reduction in cell survival incubated for 48 hrs by WST assay; type: functional, cell-based; conditions: EU-3, 48 h

COc1cccc2c1C(=O)c1c(O)c3c(c(O)c1C2=O)C[C@@](O)(C(=O)CO)C[C@@H]3O[C@H]1C[C@H](N)[C@H](O)[C@H](C)O1 [DOXORUBICIN]
Activity [1]: Toxic | Activity [2]: Toxic

Cc1ccc(NS(=O)(=O)c2ccc3c(c2)C2C=CCC2C(c2ccc(C(=O)O)cc2)N3)cc1C (stereo not drawn)
inhibition [3]: Active | inhibition [4]: Active | inhibition [5]: Active | IC50 [6]: 7.5 µM

Cc1ccc(NS(=O)(=O)c2ccc3c(c2)C2OCCC2C(c2ccc(C(=O)C(C)C)cc2)N3)cc1C (stereo not drawn)
IC50 [7]: 0.5 µM | inhibition [8]: Active | Activity [1]: Non-Toxic | fold change (FC) [9]: 1.15 | inhibition [10]: Dde | inhibition [11]: Active | inhibition [12]: Active | inhibition [13]: Active | inhibition [14]: Active | inhibition [15]: Active | IC50 [6]: 0.3 µM | CL [16]: 35.3 mL/min/kg | Vd [17]: 2.88 L/kg | Activity [2]: Non-Toxic | fold change (FC) [18]: 0.25 | inhibition [19]: Active | fold change (FC) [20]: 1.14 | fold change (FC) [21]: 0.78 | inhibition [22]: Active | inhibition [23]: Active | inhibition [24]: Active | AUC [25]: 710 ng·h/mL | beta t1/2 [26]: 0.94 h | fold change (FC) [27]: 0.13 | fold change (FC) [28]: 1.09 | inhibition [29]: Active | F [30]: 5.9% | IC50 [31]: 0.5 µM | inhibition [32]: Dde | inhibition [33]: Active | inhibition [34]: Active | inhibition [35]: Active | inhibition [36]: Active | AUC [37]: 4750 ng·h/mL | T1/2 [38]: < 1 h | fold change (FC) [39]: 1.06 | fold change (FC) [40]: 0.47 | IC50 [41]: 0.5 µM | inhibition [42]: Dde | Cmax [43]: 8200 ng/mL | T1/2 [44]: > 2 h | inhibition [45]: Active | IC50 [46]: 0.3 µM

Cc1ccc(NS(=O)(=O)c2ccc3c(c2)C2OCCC2C(c2ccc(S(C)(=O)=O)cc2)N3)cc1C (stereo not drawn)
IC50 [6]: 4.1 µM

Cc1cc(NS(=O)(=O)c2ccc3c(c2)C2OCCC2C(c2ccc(C(=O)C(C)C)cc2)N3)ccc1Cl (stereo not drawn)
IC50 [6]: 6.3 µM

Cc1ccc(NS(=O)(=O)c2ccc3c(c2)C2C=CCC2C(c2ccc(C(=O)C(C)C)cc2)N3)cc1C (stereo not drawn)
IC50 [6]: 2.7 µM

Cc1ccc(NS(=O)(=O)c2ccc3c(c2)[C@H]2OCC[C@H]2[C@H](c2ccc(C(=O)C(C)C)cc2)N3)cc1C
IC50 [6]: 2.4 µM
